According to patent US12529701B2, “Method for predicting sensitivity of cancer cell to GPX4 inhibitor” (Chugai Seiyaku Kabushiki Kaisha, priority 2019, dated 2026):

How the values were obtained:
[1] = test system: cancer cell lines shown in Table 4; test: Test for inhibition of activity of GPX4 1 (cell growth inhibition under a GPX4 inhibitor); type: cell-based, human; settings: cancer cell having a suppressed function of SMARCA4
Experimental: In each cancer cell line, cell growth inhibition activity under a GPX4 inhibitor was evaluated. As the GPX4 inhibitor, ML210 (CAS No: 1360705-96-9) which is a low-molecular GPX4 inhibitor reported to be a compound inhibiting the enzymatic activity of GPX4:
These compounds were each added, and each cell line was seeded at 100 μL/well so as to attain the seeding density (2) shown in Table 5 below. The cells were cultured for 7 days, the intracellular ATP which is a marker for cell survival was then measured using Cell Titer-Glo 2.0 Cell Viability Assay (manufactured by Promega Corporation), and the cell survival rate was calculated, where the intracellular ATP level in each cancer cell line given only a solvent (dimethyl sulfoxide (DMSO) or water) for the compound and cultured for 7 days was defined as 100%.

SK-HEP-1 tumor = test: Test for drug efficacy of ML210 on SK-HEP-1 tumor-bearing mouse; type: in vivo, BALB/c-nu/nu mice; settings: SK-HEP-1 tumor-bearing mice; oral, once a day, 100 mg/kg from day 11; measured days 11, 14 and 18; versus vehicle; FIG. 9
Experimental: For examining the efficacy of the GPX4 inhibitor on SWI/SNF complex factor-deficient cancer in vivo, a test was conducted in which ML210 was administered to mice in which SK-HEP-1 (human cancer cell line suppressing a function of SMARCA4) was transplanted (SK-HEP-1 tumor-bearing mice). […]
Subsequently, to mice (SK-HEP-1 tumor-bearing mice) for which the engraftment of the tumor (cancer cell) had been confirmed, a dosing liquid obtained by suspending ML210 at a predetermined concentration in a mixed liquid of 10% dimethyl sulfoxide (manufactured by Wako Company, product code: 043-07216), 10% Cremophor (manufactured by Sigma-Aldrich Co. LLC, product code: C5135), 15% polyethylene glycol 400 (manufactured by Wako Company, product code: 161-09065) and 15% hydroxypropyl-β-cyclodextrin (manufactured by Nihon Shokuhin Kako Co., Ltd., product code: 7585-39-9) was orally administered at a predetermined dose (20 mL/kg) once a day to a daily dosage of 100 mg/kg upon the confirmation of the implantation. The day of inoculation of SK-HEP-1 was defined as day 0, administration of ML210 was started on day 11, and the volume of the tumor was measured on days 11, 14 and 18. The minor diameter and the major diameter of the tumor were measured using an electronic caliper (manufactured by Mitutoyo Corporation, product code: CD-15AX), and the volume of the tumor was calculated by the […].

Row | Compound | cell death and cell growth suppression [1] | volume of the tumor (SK-HEP-1 tumor)
1 | COC(=O)c1ccc([C@H]2c3[nH]c4ccccc4c3C[C@H](C(=O)OC)N2C(=O)CCl)cc1 [RSL3] | markedly suppress cell growth | –
2 | Cc1onc(C(=O)N2CCN(C(c3ccc(Cl)cc3)c3ccc(Cl)cc3)CC2)c1[N+](=O)[O-] [ML210] | markedly suppress cell growth | an increase in volume of the tumor was suppressed as compared to the group given the vehicle
